Our source for the IC50 values is patent publication US20070265278A1, “2-PHENYL-INDOLES AS PROSTAGLANDIN D2 RECEPTOR ANTAGONISTS” (Aventis Pharmaceuticals Inc., priority 2005, published 2007).

pIC50: −log10 of the molar value.

A word on the pIC50: it is −log10 of the IC50, conventionally taken in molar units.

In the assay the target is T1, DP receptor (Homo sapiens, UniProt Q13258).
T1 construct: using the human cell line LS174T, which expresses the endogenous DP receptor; endogenous in cells; host or cells: LS174T human cell line
T1 sequence (Q13258 1-359): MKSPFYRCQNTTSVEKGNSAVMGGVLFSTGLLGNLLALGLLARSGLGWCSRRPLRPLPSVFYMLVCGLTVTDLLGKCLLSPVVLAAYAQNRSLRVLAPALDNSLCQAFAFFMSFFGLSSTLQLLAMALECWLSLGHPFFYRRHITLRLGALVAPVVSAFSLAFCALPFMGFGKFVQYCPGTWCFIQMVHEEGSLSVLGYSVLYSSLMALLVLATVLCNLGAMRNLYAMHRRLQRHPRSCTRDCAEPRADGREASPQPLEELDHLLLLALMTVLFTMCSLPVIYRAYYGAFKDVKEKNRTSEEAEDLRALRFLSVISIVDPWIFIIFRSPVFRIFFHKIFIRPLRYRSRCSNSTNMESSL
The assay can be described thus: SPA cAMP assay in human LS174 T cells (human DP functional assay). Type of assay: cell-based. The following applies: inhibition of PGD2 (15 nM)-stimulated cAMP, LS174T cells expressing endogenous DP receptor. The procedure: The inhibitory effects of the compounds according to the invention are assessed in a human DP functional assay. A cAMP assay is employed using the human cell line LS174T, which expresses the endogenous DP receptor. The protocol is similar to that described previously (Wright D H, Ford-Hutchinson A W, Chadee K, Metters K M, The human prostanoid DP receptor stimulates mucin secretion in LS174T cells, Br J Pharmacol. 131(8):1537-45 (2000)).
Protocol for SPA cAMP Assay in Human LS174 T Cells
• PGD2 (Cayman Chemical Cat#12010) • IBMX (Sigma Cat# 5879) • cAMP SPA direct screening assay system (Amersham code RPA 559) • 96-well cell plates (Wallac Cat# 1450-516) • Wallac 1450 Microplate Trilux scintillation counter (PerkinElmer) • Plate sealers • Eppendorf tubes • Dulbecco's Phosphate-Buffered Saline (PBS) (Invitrogen Cat#14040-133) • Distilled water • Vortex • Magnetic stirrer and stirrer bars Reagent Preparation:
All reagents should be allowed to equilibrate to room temperature before reconstitution.
Transfer the contents of the bottle to a 500 mL graduated cylinder by repeated washing with distilled water. Adjust the final volume to 500 mL with distilled water and mix thoroughly.
Dissolve each of the lysis reagents 1 and 2 in 200 mL assay buffer respectively. Leave at room temperature for 20 minutes to dissolve.
Add 30 mL of lysis buffer 2 to the bottle. Gently shake the bottle for 5 minutes.
Add 15 mL of lysis buffer 2 to each vial, and gently mix until the contents are completely dissolved.
Add 14 mL lysis buffer 2 to each vial and gently mix until the contents are completely dissolved.
Preparation of Immunoreagent
• 1) Add equal volumes of tracer, antiserum and SPA anti-rabbit reagent to a bottle, ensuring that a sufficient volume of this mixture is prepared for the desired number of wells (150 μL/well). • 2) Mix thoroughly. • 3) This immunoreagent solution should be freshly prepared before each assay and not re-used. Standard • 1) Add 1 mL lysis buffer 1 and gently mix until contents are completely dissolved. • 2) The final solution contains cAMP at a concentration of 512 pmol/mL. • 3) Label 7 polypropylene or polystyrene tubes, 0.2 pmol, 0.4 pmol, 0.8 pmol, 1.6 pmol, 3.2 pmol, 6.4 pmol and 12.8 pmol. • 4) Pipette 500 μL of lysis buffer 1 into all the tubes. • 5) Into the 12.8 pmol tube pipette 500 μL of stock standard (512 pmol/mL) and mix thoroughly. Transfer 500 μL from 12.8 pmol tube to the 6.4 pmol tube and mix thoroughly. Repeat this doubling dilution successively with the remaining tubes.
6) 50 μL aliquots in duplicate from each serial dilution and the stock standard will give rise to 8 standard levels of cAMP ranging from 0.2-25.6 pmol standard
Add 50 μL of […] IBMX into 100 mL PBS to make a final concentration of 100 μM and sonicate at 30° C. for 20 minutes.
Dissolve 1 mg PGD2 (FW, 352.5) in 284 μL DMSO to make 10 mM stock solution and store at […]. Before each assay, it is freshly prepared. Add 3 μL of 10 mM stock solution to 20 mL DMSO, mix it thoroughly, and transfer 10 mL to 40 mL PBS.
Compound dilution is carried out in Biomex 2000 (Beckman) using Method 1_cAMP DP 11 points.
5 μL of each compound from the 10 mM stock compound plates is transferred to the wells of a 96-well plate respectively as below.
Fill the plate with 45 μL of DMSO except column 7 is filled with 28 μL DMSO. Pipette column 1 thoroughly, and transfer 12 μL into column 7 parallel. Perform 1:10 serial dilution from column 1 to column 6 and from column 7 to column 11 by transfer 5 μL to 45 μL DMSO to make following concentrations:
Fill a new 96-well plate with 247.5 μL of compound dilution buffer. Transfer 2.5 μL of serially diluted compounds from above plate to the new plate (1:100 dilution) as following:
Cell Growth • 1. LS174 T are always grown in MEM (ATCC Cat# 30-2003), 10% FBS (ATCC Cat# 30-2020) and additional 2 mM L-glutamine, at 37° C. and 5% CO2. • 2. Warm 0.05% Trypsin and Versine (Invitrogen Cat# 25300-054) at 37° C. water bath. • 3. […]
For orientation: cAMP levels reflect the balance of adenylyl cyclase and phosphodiesterase activity.

Compound `O=C(O)Cc1c(-c2ccc(Cl)c(S(=O)(=O)NC3CCCCC3)c2)[nH]c2ccccc12` [Example 1(a), [2-(4-Chloro-3-cyclohexylsulfamoyl-phenyl)-1H-indol-3-yl]-acetic acid] had a pIC50 of 8.66.

In turn, `O=C(O)Cc1c(-c2ccc(Cl)c(S(=O)(=O)NC3CC4CCC3C4)c2)[nH]c2ccccc12` (stereo not drawn) [Example 1(b), {2-[3-(Bicyclo[2.2.1]hept-2-ylsulfamoyl)-4-chloro-phenyl]-1H-indol-3-yl}-acetic acid] gave a pIC50 of 8.52.

`CCCCCCNS(=O)(=O)c1cc(-c2[nH]c3ccccc3c2CC(=O)O)ccc1Cl` [Example 1(c), [2-(4-Chloro-3-hexylsulfamoyl-phenyl)-1H-indol-3-yl]-acetic acid] had a pIC50 of 7.51.

In turn, `O=C(O)Cc1c(-c2ccc(Cl)c(S(=O)(=O)NC3Cc4ccccc4C3)c2)[nH]c2ccccc12` [Example 1(d), {2-[4-Chloro-3-(indan-2-ylsulfamoyl)-phenyl]-1H-indol-3-yl}-acetic acid] gave a pIC50 of 8.02.

For the compound `CC(C)NS(=O)(=O)c1cc(-c2[nH]c3ccccc3c2CC(=O)O)ccc1Cl` [Example 1(g), [2-(4-Chloro-3-isopropylsulfamoyl-phenyl)-1H-indol-3-yl]-acetic acid], the pIC50 was 7.31.

`O=C(O)Cc1c(-c2ccc(Cl)c(S(=O)(=O)NCCC3CCCCC3)c2)[nH]c2ccccc12` [Example 1(h), {2-[4-Chloro-3-(2-cyclohexyl-ethylsulfamoyl)-phenyl]-1H-indol-3-yl}-acetic acid] gave a pIC50 of 7.46.

As for `O=C(O)Cc1c(-c2ccc(Cl)c(S(=O)(=O)NCC34CC5CC(CC(C5)C3)C4)c2)[nH]c2ccccc12` [Example 1(m), (2-[4-Chloro-3-[(tricyclo[3.3.1.13.7]decan-1-ylmethyl)-sulfamoyl]-phenyl]-1H-indol-3-yl)-acetic acid], the pIC50 was 8.07.

In the case of `O=C(O)Cc1c(-c2ccc(Cl)c(S(=O)(=O)NC3CCOCC3)c2)[nH]c2ccccc12` [Example 1(o), {2-[4-Chloro-3-(tetrahydro-pyran-4-ylsulfamoyl)-phenyl]-1H-indol-3-yl}-acetic acid], the pIC50 was 7.28.

Consider `O=C(O)Cc1c(-c2ccc(Cl)c(S(=O)(=O)N3CCCCC3)c2)[nH]c2ccccc12` [Example 1(p), {2-[4-Chloro-3-(piperidine-1-sulfonyl)-phenyl]-1H-indol-3-yl}-acetic acid], for which the negative-log IC50 (pIC50) is 6.17.

Regarding `CC(C)(C)c1ccc2[nH]c(-c3ccc(Cl)c(S(=O)(=O)NC4CCCCC4)c3)c(CC(=O)O)c2c1` [Example 1(s), [5-tert-Butyl-2-(4-chloro-3-cyclohexylsulfamoyl-phenyl)-1H-indol-3-yl]-acetic acid], the pIC50 was 8.40.

`O=C(O)Cc1c(-c2ccc(Cl)c(S(=O)(=O)NC3CCCCC3)c2)[nH]c2ccc(OC(F)(F)F)cc12` [Example 1(v), [2-(4-Chloro-3-cyclohexylsulfamoyl-phenyl)-5-trifluoromethoxy-1H-indol-3-yl]-acetic acid] had a pIC50 of 8.38.

`CN(C1CCCCC1)S(=O)(=O)c1cc(-c2[nH]c3ccccc3c2CC(=O)O)ccc1Cl` [Example 1(x), {2-[4-Chloro-3-(cyclohexyl-methyl-sulfamoyl)-phenyl]-1H-indol-3-yl}-acetic acid] showed a pIC50 of 6.46.

In turn, `O=C(O)Cc1c(-c2ccc(Cl)c(S(=O)(=O)NCc3ccc(C(F)(F)F)cc3)c2)[nH]c2ccccc12` [Example 1(y), {2-[4-Chloro-3-(4-trifluoromethyl-benzylsulfamoyl)-phenyl]-1H-indol-3-yl}-acetic acid] had a negative logarithm of the IC50 (pIC50) of 7.72.

As to `Cn1c(-c2ccc(Cl)c(S(=O)(=O)NC3CCCCC3)c2)c(CC(=O)O)c2ccccc21` [Example 2(a), [2-(4-Chloro-3-cyclohexylsulfamoyl-phenyl)-1-methyl-1H-indol-3-yl]-acetic acid], the pIC50 was 7.28.

Turning to `O=C(O)Cc1c(-c2ccc(Cl)c(S(=O)(=O)NC3CCCCC3)c2)n(Cc2ccccc2)c2ccccc12` [Example 2(b), [1-Benzyl-2-(4-chloro-3-cyclohexylsulfamoyl-phenyl)-1H-indol-3-yl]-acetic acid], the pIC50 was 7.38.

As to `COC(=O)[C@@H](NC(=O)Cc1c(-c2ccc(Cl)c(S(=O)(=O)NC3CCCCC3)c2)[nH]c2ccccc12)C(C)C` [Example 3(a), (S)-2-{2-[2-(4-chloro-3-cyclohexylsulfamoyl-phenyl)-1H-indol-3-yl]-acetylamino}-3-methyl-butyric acid methyl ester], the pIC50 is 6.80.

`O=C(Cc1c(-c2ccc(Cl)c(S(=O)(=O)NC3CCCCC3)c2)[nH]c2ccccc12)NS(=O)(=O)c1ccccc1` [Example 6, 5-[3-(2-Benzenesulfonylamino-2-oxo-ethyl)-1H-indol-2-yl]-2-chloro-N-cyclohexyl benzenesulfonamide] gave a pIC50 of 8.30.

In turn, `NC(=O)Cc1c(-c2ccc(Cl)c(S(=O)(=O)NC3CCCCC3)c2)[nH]c2ccccc12` [Example 7(a), 2-[2-(4-Chloro-3-cyclohexylsulfamoyl-phenyl)-1H-indol-3-yl]-acetamide] showed a pIC50 of 6.88.

`Cn1c(-c2ccc(Cl)c(S(=O)(=O)NC3CCCCC3)c2)c(CCO)c2ccccc21` [Example 9, 2-Chloro-N-cyclohexyl-5-[3-(2-hydroxy-ethyl)-1-methyl-1H-indol-2-yl]-benzenesulfonamide] showed a pIC50 of 5.06.

Take `COc1ccc2[nH]c(-c3ccc(Cl)c(S(=O)(=O)NC4CCCCC4)c3)c(CC(=O)O)c2c1` [Example 10(a), [2-(4-Chloro-3-cyclohexylsulfamoyl-phenyl)-5-methoxy-1H-indol-3-yl]-acetic acid]: the pIC50 was 8.52.

`O=C(O)Cc1c(-c2ccc(Cl)c(S(=O)(=O)NC3CCCCC3)c2)[nH]c2ccc(O)cc12` [Example 10(c), [2-(4-Chloro-3-cyclohexylsulfamoyl-phenyl)-5-hydroxy-1H-indol-3-yl]-acetic acid]: the pIC50 is 8.38.

Turning to `O=C(O)Cc1c(-c2ccc(Cl)c(S(=O)(=O)NC3CCCCC3)c2)[nH]c2cc(Cl)ccc12` [Example 10(d), [6-Chloro-2-(4-chloro-3-cyclohexylsulfamoyl-phenyl)-1H-indol-3-yl]-acetic acid], the pIC50 is 9.00.

`CN(C1CCCCC1)S(=O)(=O)c1cccc(-c2[nH]c3ccccc3c2CC(=O)O)c1` [Example 10(e), {2-[3-(Cyclohexyl-methyl-sulfamoyl)-phenyl]-1H-indol-3-yl}-acetic acid] had a pIC50 of 6.46.

`O=C(O)Cc1c(-c2cccc(S(=O)(=O)NC3CCCCC3)c2)[nH]c2ccccc12` [Example 10(f), [2-(3-Cyclohexylsulfamoyl-phenyl)-1H-indol-3-yl]-acetic acid] showed a pIC50 of 6.97.
